{"source": "patent US7772183B2", "about": "(Bristol-Myers Squibb Company, priority 2005, dated 2010)", "key": {"[1]": {"tested_on": "human pancreatic chymotrypsin", "assay": "Specificity assay, chymotrypsin", "format": "biochemical", "settings": "read-out: Chymotrypsin activity in the specificity assays", "method": "The specificities of compounds of the present disclosure were determined against a variety of serine proteases: human neutrophil elastase (HNE), porcine pancreatic elastase (PPE) and human pancreatic chymotrypsin and one cysteine protease: human liver cathepsin B. In all cases, a 96-well plate format protocol using colorimetric p-nitroaniline (pNA) substrate or fluorometric Amino-Methyl-Coumarin (AMC) substrate, specific for each enzyme was used as described previously (PCT Patent Application No. WO 00/09543) with some modifications. All enzymes were purchased from Sigma or EMDbiosciences while the substrates were from Bachem.\nEach pNA assay included a 2 h enzyme-inhibitor pre-incubation at room temperature followed by addition of substrate and hydrolysis to ˜15% conversion as measured on a Spectramax Pro microplate reader. The cathepsin B assay was initiated by adding substrate to a 10 min enzyme-inhibitor pre-incubation at room temperature, and the assay plate measured immediately using the Cytofluor Series 4000. Compound concentrations varied from 100 to 0.4 μM depending on their potency.\nThe final conditions for each assay were as follows: […]\nThe percentage of inhibition was calculated using the formula: [1−((UVinh−UVblank)/(UVctl−UVblank))]×100 […]"}, "[2]": {"target": "T1, HCV NS3/4A protease complex, J4L6S strain (Hepatitis C virus genotype 1b, UniProt O92972, C1454S/C1711G)", "T1 construct": "DNA encoding the recombinant HCV NS3/4A protease complex (amino acids 1027 to 1711) for these strains; inferred from the pET21b vector and Ni-NTA purification; made in house; host or cells: Escherichia coli BL21 (DE3), pET21b", "T1 sequence (O92972 1027-1711 C1454S/C1711G, one chain of several)": "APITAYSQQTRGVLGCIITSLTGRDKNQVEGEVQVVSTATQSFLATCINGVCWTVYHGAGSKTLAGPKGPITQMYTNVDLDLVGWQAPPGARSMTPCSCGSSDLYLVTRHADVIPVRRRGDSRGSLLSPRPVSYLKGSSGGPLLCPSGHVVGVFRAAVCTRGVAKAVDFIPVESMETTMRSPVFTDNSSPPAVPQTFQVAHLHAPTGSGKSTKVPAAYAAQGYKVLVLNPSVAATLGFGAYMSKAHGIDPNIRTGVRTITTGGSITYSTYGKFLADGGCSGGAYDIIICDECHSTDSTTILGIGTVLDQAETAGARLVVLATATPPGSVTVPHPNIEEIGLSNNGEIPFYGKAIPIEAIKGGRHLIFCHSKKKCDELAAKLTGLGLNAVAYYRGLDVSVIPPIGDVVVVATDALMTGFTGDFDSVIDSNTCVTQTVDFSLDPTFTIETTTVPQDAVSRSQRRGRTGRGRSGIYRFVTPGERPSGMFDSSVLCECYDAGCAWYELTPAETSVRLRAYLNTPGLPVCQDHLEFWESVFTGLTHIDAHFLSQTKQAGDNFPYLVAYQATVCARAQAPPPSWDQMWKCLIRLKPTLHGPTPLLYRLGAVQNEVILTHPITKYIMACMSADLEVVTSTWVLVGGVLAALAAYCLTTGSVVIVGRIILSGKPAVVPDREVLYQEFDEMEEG", "assay": "FRET peptide assay to monitor HCV NS3/4A proteolytic activity (J4L6S strain)", "format": "biochemical", "description": "HCV NS3 protease complexes, derived from the BMS strain, H77 strain or J4L6S strain, were generated, as described below. These purified recombinant proteins were generated for use in a homogeneous assay (see below) to provide an indication of how effective compounds of the present disclosure would be in inhibiting HCV NS3 proteolytic activity.\nSerum from an HCV-infected patient was obtained from Dr. T. Wright, San Francisco Hospital. An engineered full-length cDNA (compliment deoxyribonucleic acid) template of the HCV genome (BMS strain) was constructed from DNA fragments obtained by reverse transcription-PCR (RT-PCR) of serum RNA (ribonucleic acid) and using primers selected on the basis of homology between other genotype 1a strains. From the determination of the entire genome sequence, a genotype 1a was assigned to the HCV isolate according to the classification of Simmonds et al. (See P Simmonds, K A Rose, S Graham, S W Chan, F McOmish, B C Dow, E A Follett, P L Yap and H Marsden, J. Clin. Microbiol., 31(6), 1493-1503 (1993)). […]"}}}
{"smiles": "CC(C)(C)OC(=O)N[C@H]1CCCCC/C=C\\[C@@H]2C[C@@]2(C(=O)NS(=O)(=O)C2CC2)NC(=O)[C@@H]2C[C@@H](OC(=O)c3ccc(C#N)cc3)CN2C1=O", "note": "[Compound 26, 18-(4-cyanobenzoyloxy)-14-tert-butoxycarbonylamino-4-cyclopropylsulfonylaminocarbonyl-2,15-dioxo-3,16-diazatricyclo-[14.3.0.0^4,6]-nonadec-7-ene]", "values": [{"measurement": "IC50", "setting": "[1]", "value": "> 100000", "unit": "nM"}, {"measurement": "melting point", "value": "164 to 166", "unit": "°C"}, {"measurement": "IC50", "setting": "[2]", "value": 0.23, "unit": "nM"}]}
